Measured values from EP3498714B1 (priority 2017, dated 2019).
≈ marks a conversion by molar mass, not a printed value. Where two headings read alike, the source gives them in different places.

Assays:
[1] = test system: Staphylococcus aureus DSM-346; assay: Microbroth dilution assay (MIC); format: cell-based; conditions: 2% NaCl; for Minimum inhibitory concentrations (MIC): 18-24 h
Experimental: (§1) Bacterial strains. All microorganisms were obtained from the German Collection of Microorganisms and Cell Cultures (Deutsche Sammlung für Mikroorganismen und Zellkulturen, DSMZ) and the American Type Culture Collection (ATCC) or were part of our internal strain collection.
(§2) Antimicrobial Testing. Sorangicin A (1) and Neosorangicin A (2) were tested in microbroth dilution assays on a panel of Gram-positive and Gram-negative bacteria. Overnight cultures were prepared from cryopreserved cultures and were diluted to achieve a final inoculum of 10^4-10^5 cfu/mL. Serial dilutions of compounds in DMSO were prepared in sterile 96-well plates in the test medium (cation-adjusted Müller-Hinton broth; supplemented with 2% (w/v) NaCl for S. aureus and 2.5% (v/v) lysed horse blood for Enterococcus and Streptococcus spp.) The cell suspension was added and microorganisms were grown for 18-24 h at either 30°C or 37°C. Streptococci and enterococci were grown under microaerophilic conditions. Growth inhibition was assessed by visual inspection and given MIC values are the lowest concentration of antibiotic at which there was no visible growth. Table 2. Antimicrobial activity; Minimum inhibitory concentrations (MIC, µg/mL) of neosorangicin A (2), sorangicin A (1), and a reference antibiotic (RIF; Rifampicin) on selected Gram-positive (I) and Gram-negative (II) species.

[2] = test system: Staphylococcus aureus Newman; assay: Microbroth dilution assay (MIC); format: cell-based; conditions: 18-24 h, 2% NaCl
Experimental: as §1, §2

[3] = test system: Escherichia coli DSM-26863 (tolC3); assay: Microbroth dilution assay (MIC); format: cell-based; conditions: for Minimum inhibitory concentrations (MIC): Escherichia coli DSM-26863 (tolC3), 18-24 h
Experimental: as §1, §2

[4] = test system: Escherichia coli DSM-1116; assay: Microbroth dilution assay (MIC); format: cell-based; conditions: for Minimum inhibitory concentrations (MIC): 18-24 h
Experimental: as §1, §2

[5] = test system: Staphylococcus aureus Newman (Rif^R); assay: Microbroth dilution assay (MIC); format: cell-based; conditions: for Minimum inhibitory concentrations (MIC): Staphylococcus aureus Newman (Rif^R), 18-24 h, 2% NaCl; for activity on rifampicin-resistant (Rif^R) derivative of S. aureus Newman: result in words
Experimental: as §1, §2

[6] = test system: Enterococcus faecalis DSM-20478; assay: Microbroth dilution assay (MIC); format: cell-based; conditions: 2.5% lysed horse blood, microaerophilic; for Minimum inhibitory concentrations (MIC): 18-24 h
Experimental: as §1, §2

[7] = test system: Staphylococcus aureus ATCC29213; assay: Microbroth dilution assay (MIC); format: cell-based; conditions: 18-24 h, 2% NaCl
Experimental: as §1, §2

[8] = test system: Enterococcus faecium DSM-20477; assay: Microbroth dilution assay (MIC); format: cell-based; conditions: 2.5% lysed horse blood, microaerophilic; for Minimum inhibitory concentrations (MIC): 18-24 h
Experimental: as §1, §2

[9] = test system: Escherichia coli (TolC-deficient); assay: Microbroth dilution assay (MIC); format: cell-based; conditions: for Minimum inhibitory concentrations (MIC): Escherichia coli (TolC-deficient), 18-24 h
Experimental: as §1, §2

[10] = test system: Pseudomonas aeruginosa DSM-1128; assay: Microbroth dilution assay (MIC); format: cell-based; conditions: for Minimum inhibitory concentrations (MIC): 18-24 h
Experimental: as §1, §2

[11] = test system: Streptococcus pneumoniae DSM-11865; assay: Microbroth dilution assay (MIC); format: cell-based; conditions: 2.5% lysed horse blood, microaerophilic; for Minimum inhibitory concentrations (MIC): 18-24 h
Experimental: as §1, §2

[12] = test system: Klebsiella pneumoniae DSM-30104; assay: Microbroth dilution assay (MIC); format: cell-based; conditions: for Minimum inhibitory concentrations (MIC): 18-24 h
Experimental: as §1, §2

[13] = test system: Acinetobacter baumannii DSM-30008; assay: Microbroth dilution assay (MIC); format: cell-based; conditions: for Minimum inhibitory concentrations (MIC): 18-24 h
Experimental: as §1, §2

[14] = test system: Escherichia coli DSM-1116 + 3 µg/ml PMBN; assay: Microbroth dilution assay (MIC) with PMBN; format: cell-based; conditions: for Minimum inhibitory concentrations (MIC): 18-24 h
Experimental: as §1, §2
However, similar to 1, neosorangicin A (2) was not active on a rifampicin-resistant (Rif^R) derivative of S. aureus Newman, which confirms overlapping binding sites on RNA polymerase. […] In addition, the MIC values of 2 on efflux-deficient E. coli mutants (TolC as part of the AcrAB multidrug efflux system) were decreased.

[15] = test system: S. aureus Newman; assay: MIC in RPMI-1640 macrophage growth medium; format: cell-based; conditions: RPMI-1640 macrophage growth medium supplemented with 0.5% (v/v) FBS
Experimental: Determination of intracellular efficiency. For infection experiments, cells were seeded in 24-well plates in RPMI-1640 supplemented with 10% FBS and 150 nM phorbol 12-myristate 13-acetate (PMA) at a concentration of 10^5 cells/well. After 2 d, the cells were differentiated into macrophages and reached a cell density of ca. 2 x 10^5 cells/well. The medium was then removed and the cells were washed twice with PBS. An inoculum of ca. 2×10^6 CFU (colony-forming units) of S. aureus Newman in log phase (multiplicity of infection, MOI=10) was added to each well in RPMI/10% FBS and the plates were incubated at 37 °C and 5% CO2 in a water vapor-saturated atmosphere. The inoculum was checked by serial dilution and plating on CASO agar (1.5% peptone casein, 0.5% peptone soymeal, 0.5% NaCl, 1.5% agar, pH 7.3). After 2 h, the infected cells were washed three times with PBS (phosphate-buffered saline; pH 7.4) and incubated with fresh growth medium containing 10 µg/mL lysostaphin (≥500 U/mg) for 30 min in order to kill remaining extracellular bacteria. The initial load (Control t0) was checked by recovery of intracellular bacteria and plating on CASO agar. After three times washing with PBS the test compounds were added in RPMI-1640/0.5% FBS at the given concentrations for 18 h. After repeated washing with PBS the intracellular bacteria were recovered by adding ice-cooled water for 10 min and the bacterial suspensions were further diluted in 0.9% (w/v) NaCl prior to plating on CASO agar. The plates were incubated overnight at 37 °C and colonies were counted. The MIC values on S. aureus Newman in RPMI-1640 macrophage growth medium supplemented with 0.5% (v/v) fetal bovine serum (FBS) for neosorangicin A (2), sorangicin A (1) and the reference antibiotic rifampicin (RIF) were 0.01, 0.13 and 0.01 µg/mL, respectively. Human THP-1 macrophages were infected with S. aureus at an MOI (multiplicity of infection) of 10. After killing of extracellular bacteria, the cells were treated for 18 h with the antibiotics at their respective 1x and 8x MIC. […]

[16] = target: T1, S. aureus RNA polymerase (Staphylococcus aureus, UniProt P47768); assay: RNA polymerase inhibition assay (ProFoldin kit); format: biochemical
T1 construct: purchased ProFoldin, MA
Experimental: The inhibition of S. aureus RNA polymerase by Sorangicin derivatives 1 and 2 was tested in vitro (bacterial RNA Polymerase Assay Kit; ProFoldin, MA). The samples were prepared and analyzed according to the manufacturer's protocol with slight modifications. In brief, serial dilutions (concentration range: 0.1 nM - 10 µM) of rifampicin, sorangicin A (1) and neosorangicin A (2) in black 384-well plates (low-volume, non-binding surface; Corning) were incubated for 1 h at room temperature with 25 nM RNA polymerase from S. aureus in assay buffer (42.5 mM HEPES, 42.5 mM NH4Cl, 2 mM DTT, 4 mM MgCl2, 0.005 % (v/v) Tween-20; pH 7.5) containing 0.5 mM NTPs and 1x DNA template. The reaction was monitored by incubation with a fluorescent probe for 5 min and measurement of the fluorescence intensity at 535 nm after excitation at 485 nm (Tecan Infinite M200PRO). Half-inhibitory concentrations (IC50) were determined in two independent experiments by sigmoidal curve fitting and given values are IC50 ± SD.

[17] = test system: intracellular S. aureus Newman; assay: Intracellular efficacy in infected THP-1 macrophages; format: cell-based; conditions: intracellular S. aureus Newman in PMA-differentiated THP-1 macrophages; MOI 10; 18 h treatment at 1x and 8x MIC
Experimental: (§3) Cells. Human acute monocytic leukemia THP-1 cells (ACC-16) were obtained from the German Collection of Microorganisms and Cell Cultures (DSMZ) and were maintained under conditions recommended by the depositor.
Determination of intracellular efficiency. For infection experiments, cells were seeded in 24-well plates in RPMI-1640 supplemented with 10% FBS and 150 nM phorbol 12-myristate 13-acetate (PMA) at a concentration of 10^5 cells/well. After 2 d, the cells were differentiated into macrophages and reached a cell density of ca. 2 x 10^5 cells/well. The medium was then removed and the cells were washed twice with PBS. An inoculum of ca. 2×10^6 CFU (colony-forming units) of S. aureus Newman in log phase (multiplicity of infection, MOI=10) was added to each well in RPMI/10% FBS and the plates were incubated at 37 °C and 5% CO2 in a water vapor-saturated atmosphere. The inoculum was checked by serial dilution and plating on CASO agar (1.5% peptone casein, 0.5% peptone soymeal, 0.5% NaCl, 1.5% agar, pH 7.3). After 2 h, the infected cells were washed three times with PBS (phosphate-buffered saline; pH 7.4) and incubated with fresh growth medium containing 10 µg/mL lysostaphin (≥500 U/mg) for 30 min in order to kill remaining extracellular bacteria. […] The plates were incubated overnight at 37 °C and colonies were counted. […]

[18] = test system: Human THP-1 macrophages; assay: Toxicity towards THP-1 macrophages (microscopic control); format: cell-based; conditions: 18 h treatment at 1x and 8x MIC
Experimental: • Figure 1. Chemical structures of sorangicin A (1) and of a compound according to the present invention - neosorangicin A - (2). • Figure 2. A) Reduction of intracellular S. aureus Newman (CFU: colony-forming unit) in PMA-differentiated THP-1 cells after 18 h treatment with rifampicin (RIF), neosorangicin A (2) and sorangicin A (1) at their respective 1x and 8x MIC. B) Microscopic control of THP-1 cells that were either treated with neosorangicn A (2) or 0.5% (v/v) DMSO as solvent control. • Figure 3. Comparison of sorangicin and neosorangicin biosynthetic pathways. Wavy bond symbolize phosphopantheteinyl arms. ACP domains are shown as small, unlabeled circles. Domains that are missing from one of the two pathways are shown as asterisks.
as §3
Determination of intracellular efficiency. For infection experiments, cells were seeded in 24-well plates in RPMI-1640 supplemented with 10% FBS and 150 nM phorbol 12-myristate 13-acetate (PMA) at a concentration of 10^5 cells/well. After 2 d, the cells were differentiated into macrophages and reached a cell density of ca. 2 x 10^5 cells/well. […] The plates were incubated overnight at 37 °C and colonies were counted. […]

[19] = read-out: Minimum inhibitory concentrations (MIC)
[20] = DSM1116, 18-24 h, read-out: Minimum inhibitory concentrations (MIC)
[21] = purified S. aureus RNA polymerase 25 nM, 1 h at room temperature, IC50 ± SD, two independent experiments, read-out: IC50

T1 sequence (P47768 whole entry): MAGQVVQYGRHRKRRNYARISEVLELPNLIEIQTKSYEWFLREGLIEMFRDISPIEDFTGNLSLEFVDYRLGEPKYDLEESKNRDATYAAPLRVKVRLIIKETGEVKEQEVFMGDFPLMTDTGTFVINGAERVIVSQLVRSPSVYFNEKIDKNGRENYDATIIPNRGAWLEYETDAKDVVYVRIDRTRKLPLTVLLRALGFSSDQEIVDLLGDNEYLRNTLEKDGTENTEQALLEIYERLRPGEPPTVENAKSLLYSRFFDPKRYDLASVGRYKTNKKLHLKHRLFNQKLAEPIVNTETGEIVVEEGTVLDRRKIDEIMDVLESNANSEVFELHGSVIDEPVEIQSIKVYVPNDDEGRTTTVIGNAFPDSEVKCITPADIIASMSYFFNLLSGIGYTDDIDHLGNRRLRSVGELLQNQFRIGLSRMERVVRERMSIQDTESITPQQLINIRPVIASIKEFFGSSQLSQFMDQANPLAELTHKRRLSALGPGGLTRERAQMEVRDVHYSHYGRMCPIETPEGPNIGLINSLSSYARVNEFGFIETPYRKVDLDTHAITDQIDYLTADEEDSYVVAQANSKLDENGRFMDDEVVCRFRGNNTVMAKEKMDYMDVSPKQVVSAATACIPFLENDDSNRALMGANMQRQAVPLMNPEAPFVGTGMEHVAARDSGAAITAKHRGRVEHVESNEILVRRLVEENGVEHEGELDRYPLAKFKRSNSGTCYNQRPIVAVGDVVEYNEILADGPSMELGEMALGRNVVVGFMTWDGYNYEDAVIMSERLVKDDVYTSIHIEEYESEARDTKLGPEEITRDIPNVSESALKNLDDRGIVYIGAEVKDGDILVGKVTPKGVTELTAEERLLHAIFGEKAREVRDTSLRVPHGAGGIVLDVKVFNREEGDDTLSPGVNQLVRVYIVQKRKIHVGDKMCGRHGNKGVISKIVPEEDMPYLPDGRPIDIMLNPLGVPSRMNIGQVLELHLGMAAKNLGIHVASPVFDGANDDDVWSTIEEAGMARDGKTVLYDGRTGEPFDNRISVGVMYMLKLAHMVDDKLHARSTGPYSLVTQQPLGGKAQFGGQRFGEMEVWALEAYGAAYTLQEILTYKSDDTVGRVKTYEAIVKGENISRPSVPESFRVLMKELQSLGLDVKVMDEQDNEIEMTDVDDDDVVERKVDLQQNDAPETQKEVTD

Compound | Minimum inhibitory concentrations (MIC) [1] | Minimum inhibitory concentrations (MIC) [2] | Minimum inhibitory concentrations (MIC) [3] | Minimum inhibitory concentrations (MIC) [4] | Minimum inhibitory concentrations (MIC) [5] | activity on rifampicin-resistant (Rif^R) derivative of S. aureus Newman [5] | Minimum inhibitory concentrations (MIC) [6] | Minimum inhibitory concentrations (MIC) [7] | Minimum inhibitory concentrations (MIC) [8] | Minimum inhibitory concentrations (MIC) [9] | Minimum inhibitory concentrations (MIC) [10] | Minimum inhibitory concentrations (MIC) [11] | Minimum inhibitory concentrations (MIC) [12] | Minimum inhibitory concentrations (MIC) [13] | Minimum inhibitory concentrations (MIC) [14] | MIC values on S. aureus Newman [15] | IC50 [16, 21] | also measured
CO[C@H]1/C=C/O[C@@]2(C)Oc3c(C)c(O)c4c(O)c(c(/C=N/N5CCN(C)CC5)c(O)c4c3C2=O)NC(=O)/C(C)=C\C=C\[C@H](C)[C@H](O)[C@@H](C)[C@@H](O)[C@@H](C)[C@H](OC(C)=O)[C@@H]1C [RIF, Rifampicin] |  |  |  |  |  |  |  |  |  |  |  |  |  |  |  |  |  | MIC ([1]; DSM346, 18-24 h, read-out: Minimum inhibitory concentrations (MIC)): 0.006 µg/mL (≈ 0.00729 µM); MIC [2, 19]: 0.01 µg/mL (≈ 0.0122 µM); MIC ([3]; Escherichia coli, DSM26863, read-out: Minimum inhibitory concentrations (MIC)): 6.4 µg/mL (≈ 7.78 µM); MIC [4, 20]: 6.4 µg/mL (≈ 7.78 µM); MIC ([5]; Staphylococcus aureus, NEWMAN, read-out: Minimum inhibitory concentrations (MIC)): > 6.4 µg/mL; MIC ([6]; DSM20478, 18-24 h, read-out: Minimum inhibitory concentrations (MIC)): 6.4 µg/mL (≈ 7.78 µM); MIC [7, 19]: 0.01 µg/mL (≈ 0.0122 µM); MIC ([8]; DSM20477, 18-24 h, read-out: Minimum inhibitory concentrations (MIC)): > 6.4 µg/mL; MIC ([9]; Escherichia coli, read-out: Minimum inhibitory concentrations (MIC)): 6.4 µg/mL (≈ 7.78 µM); MIC ([10]; DSM1128, 18-24 h, read-out: Minimum inhibitory concentrations (MIC)): > 6.4 µg/mL; MIC ([11]; DSM11865, 18-24 h, read-out: Minimum inhibitory concentrations (MIC)): 0.1 µg/mL (≈ 0.122 µM); MIC ([12]; DSM30104, 18-24 h, read-out: Minimum inhibitory concentrations (MIC)): 6.4 µg/mL (≈ 7.78 µM); MIC ([13]; DSM30008, 18-24 h, read-out: Minimum inhibitory concentrations (MIC)): 1.6 µg/mL (≈ 1.94 µM); MIC [14, 20]: 0.4 µg/mL (≈ 0.486 µM); MIC ([15]; Staphylococcus aureus, NEWMAN): 0.01 µg/mL (≈ 0.0122 µM); IC50 [16]: 30 ± 20 nM
neosorangicin A [compound 2] | 0.25 µg/mL | 0.01 µg/mL | 2 µg/mL | 8 µg/mL | > 64 µg/mL | not active | 0.5 µg/mL | 0.01 µg/mL | 8 µg/mL | 1 µg/mL | 8 µg/mL | 0.5 µg/mL | 8 µg/mL | 8 µg/mL | 0.25 µg/mL | 0.01 µg/mL | 60 ± 10 nM | reduction of the bacterial load [17]: 3 Log; toxicity towards the human macrophages [18]: without displaying any apparent toxicity
sorangicin A [compound 1] | 1 µg/mL | 0.1 µg/mL | 8 µg/mL | 16 µg/mL | > 64 µg/mL | not active | 2 µg/mL | 0.03 µg/mL | 16 µg/mL | 8 µg/mL | 32 µg/mL | 32 µg/mL | 16 µg/mL | 8 µg/mL | 0.25 µg/mL | 0.13 µg/mL | 210 ± 120 nM | 
